Measured values taken from PMC12455130, “Multifunctional molecular agent for tau-targeted combinational therapy of Alzheimer’s disease” (The Journal of Biological Chemistry, 2025).

Assays:
[1] = target: T1, tau peptide R3 (Homo sapiens, UniProt P10636); experiment: ThS assay, heparin-induced R3 aggregation (kinetics and dose-response); type: biochemical; conditions: 80 μM compound, 15 μM R3, 3.8 μM heparin, 37 °C, 3 h
T1 construct: R3 (^306VQIVYK PVDLSK VTSKCG SLGNIH HKPGGG Q^336) and rabbit anti-tau antibody were purchased from MuJin; purchased MuJin
Experimental: The inhibition effect of 4GA–2GA on R3 aggregation was explored by thioflavin S (ThS) assay ([24]). In general, the kinetics of R3 aggregation in the absence or the presence of 4GA, 2GA was assessed by measuring the emission intensity of ThS at 500 nm, which reflects the amount of R3 aggregates. As the control experiments, the aggregation kinetics of 4ME and GA were also carried out. While induced by heparin, R3 aggregates rapidly at 37 °C, and the fluorescence of ThS reaches a maximum after an average time of 200 s (Fig. 4A). Based on the aforementioned conditions, the inhibitory ability of our synthetic compounds at three different concentrations (5, 10, and 40 μM) was tested.
Next, the dose–response inhibitory effects of our synthetic compounds on R3 aggregation were investigated. The detailed experimental operation was descripted in ESI. […] The apparent values of IC50 were calculated according to the dose−response curve.
Tau peptide R3 was adjusted to a concentration of 15 μM using 50 mM Tris−HCl buffer (pH 7.4), ThS (final concentration of 10 μM), and different amounts of 4GA, 2GA, 4ME, and GA (final concentration of 0, 5, 10, and 40 μM) as the aggregation inhibitor were added in1to the reaction mixture. Aggregation was induced by adding heparin to the solution (final concentration of 3.8 μM); the kinetics of each sample was immediately monitored by a fluorescence spectrophotometer with a 10-mm quartz cell at 440/500 nm (excitation/emission). A circulating water bath was necessary to maintain the temperature at 37 °C.
Tau peptide R3 was adjusted to a concentration of 15 μM using 50 mM Tris–HCl buffer (pH 7.4). Different amounts of 4GA, 2GA, 4ME, and GA (final concentration of 0, 1, 2, 4, 6, 10, 15, 20, 30, 40, 60, or 80 μM) as the aggregation inhibitors were added into the reaction mixture. Aggregation was induced by adding heparin to the solution (final concentration of 3.8 μM), After 3 h incubation at 37°C, ThS (final concentration of 10 μM) was added, and the fluorescence intensity at 440/500 nm (excitation/emission) was recorded on Hitachi F-7000 with a 10-mm quartz cell. The dose−response inhibitory effects of R3 aggregation were expressed by the aggregation percentage, which was calculated according to the following (Formula 4.3):(4.3) aggregation%=F-F0/Ft-F0×100
where F0 = fluorescence intensity of R3 monomer, Ft = fluorescence intensity of R3 aggregate, and F = fluorescence intensity of R3 aggregate in the presence of inhibitors. The IC50 values were also calculated according to the dose−response inhibitory effects.
Tau peptide R3 was adjusted to a concentration of 15 μM using Tris−HCl buffer (pH 7.4), and the synthetic compounds (4GA, 2GA, together with 4ME, GA as the comparison) at different concentrations, as aggregation inhibitor, were added into the reaction mixture separately. Aggregation was induced by heparin, and incubated at 37 °C for 3 h. By introducing fluorescence probe ThS, the dose−response inhibitory effects on R3 aggregation were recorded, according to normalized ThS fluorescence intensity (excitation: 440 nm, emission: 500 nm).
Figure S14. Inhibitory effects of N-substituted Azacrown on heparin-induced R3 aggregation, exermined by ThS fluorescence: 15 μM R3 and 3.8 μM heparin with cyclen, 1ME, 2ME, 3ME, and 4ME (80 μM) was incubated respectively at 37°C for 3h. 10 μM ThS was added to each of the solution, Spectra of ThS fluorescence were recorded at Ex440 nm.

[2] = target: T1, tau peptide R3; experiment: ThS assay, Cu2+-promoted heparin-induced R3 aggregation; type: biochemical; conditions: R3 15 μM, Cu2+ 3.8 μM, compound 10 μM, heparin 3.8 μM, 3 h
From the text: Metal ions, especially Cu^2+, are believed to be highly compatible with cysteine residues of tau peptide as a coordination center ([26]). Accompanied by the formation of intermolecular S–Cu–S bridging coordination bond, or intermolecular disulfide bond, these metal ions have been proven to promote tau aggregation ([27]). After confirming that 4GA and 2GA can effectively remove copper ions through coordination, we further explore their effects on R3 aggregation under the promotion of Cu^2+. […] Heparin was used to initiate the aggregation ([15]). […] As a comparison, the effects of the precursor compounds: 4ME, 3ME, 2ME, and 1ME, on Cu^2+-promoted R3 aggregation were also examined (Fig. S15).
Figure 5 Kinetic curves and TEM image of R3 aggregation with 4GA or 2GA.A, kinetic curves of the R3 (15 μM) aggregation monitored by ThS fluorescence assay in different conditions. B, ThS fluorescence intensity of R3 (15 μM) incubated for 3 h in different conditions. C, TEM image of R3 fibrils in different conditions. Negatively stained with uranyl acetate. Scale bar represents 200 nm. Final concentrations of R3, Cu^2+, and inhibitors are 15, 3.8, and 10 μM, respectively. All aggregations were initiated by heparin (3.8 μM). 2GA, (4,10-dimethyl-1,4,7,10-tetraazacyclododecane-1,7-diyl)bis((3,4,5-trihydroxyphenyl)methanone); 4GA, (1,4,7,10-tetraazacyclododecane-1,4,7,10-tetrayl)tetrakis((3,4,5-trihydroxyphenyl)methanone); TEM, transmission electron microscopy; ThS, thioflavin S.
The promotion of Cu^2+ on R3 aggregation was also inspected, similar to the aforementioned operation, unless that 3.8 μM Cu^2+ was also included, and using 50 mM Hepes (pH 7.4) as the buffer solution.
Fig. S15 ThS fluorescence intensity of R3 (15 µM) incubated for 3 h. Final concentrations of R3, Cu^2+, and compounds are 15, 3.8 and 10 µM, respectively. All aggregations were initiated by heparin (3.8 µM).

[3] = test system: tau protein; conditions: cited from earlier work
[4] = parameters: method as in PMID 19496588; conditions: cited from earlier work
[5] = target: T1, tau peptide R3; parameters: method as in PMID 23442089; conditions: reported earlier; read-out: IC50 on R3 aggregation; cited from earlier work

T1 sequence (P10636 623-653 limits assumed): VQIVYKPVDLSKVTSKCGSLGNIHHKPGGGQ

Compound | effect on heparin-induced R3 aggregation (ThS fluorescence at 500 nm) [1] | ThS fluorescence intensity of R3 aggregation in the presence of Cu2+ [2] | also measured
1,4,7-trimethyl-1,4,7,10-tetraazacyclododecane [2ME] | did not hinder the aggregation of R3 peptides | only to a level close to the case of R3 aggregation in the absence of Cu^2+ | 
CN1CCNCCNCCNCC1 [1ME, 1-methyl-1,4,7,10-tetraazacyclododecane] | did not hinder the aggregation of R3 peptides | only to a level close to the case of R3 aggregation in the absence of Cu^2+ | 
CN1CCNCCN(C)CCN(C)CC1 [3ME, 1,4,7-trimethyl-1,4,7,10-tetraazacyclododecane] | did not hinder the aggregation of R3 peptides | only to a level close to the case of R3 aggregation in the absence of Cu^2+ | 
C=C(C)[C@@H]1CCC(C)=C[C@H]1c1c(O)cc(CCCCC)cc1O [cannabidiol] |  |  | binding ability to tau protein [3]: 42100 M⁻¹
C1CNCCNCCNCCN1 [cyclen, 1,4,7,10-tetraazacyclododecane] |  |  | log KCu-cyclen (thermodynamic stability) [4]: 24.8
Nc1nc(=O)c2nc(CNc3ccc(C(=O)N[C@@H](CCC(=O)O)C(=O)O)cc3)cnc2[nH]1 [folic acid] |  |  | binding ability to tau protein [3]: 230000 M⁻¹
tannic acid |  |  | IC50 [5]: 3.5 µM
